Here are results for 11 compounds from PubChem BioAssay (NCI).

Test systems include SF-539 CNS; HL-60(TB) leukemia; OVCAR-4 ovarian; SK-OV-3 ovarian; A498 renal; SK-MEL-2 melanoma; K-562 leukemia; OVCAR-5 ovarian; HOP-92 NSCLC; HCC-2998 colon.
What all share (assay): NCI-60 cell line screen, 48 h

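The compound was tested at five concentrations on cells cultured in 96-well plates, with a 48-hour exposure period. GI50 = concentration required for 50% inhibition of growth. Definition used: TGI = concentration required for complete inhibition of growth.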 Where only a bound is given, the exact number is not on record here.

Take `Nc1ncnc2c1ncn2C1OC(C(=O)OCCO)C(O)C1O` (centres undefined): the TGI in the test on SF-539 CNS, with HL-60(TB) leukemia, with OVCAR-4 ovarian, with SK-OV-3 ovarian, in the test with A498 renal and with SK-MEL-2 melanoma was above 100 µM throughout. Besides, the TGI in the test with K-562 leukemia, with OVCAR-5 ovarian and with HOP-92 NSCLC was above 100 µM in each case.
For the compound `NCCNc1ncnc2ccc(Cl)cc12`, the TGI in the test on HL-60(TB) leukemia, in the test on OVCAR-4 ovarian, in the test on SK-OV-3 ovarian, in the test with A498 renal, in the test on SK-MEL-2 melanoma and with K-562 leukemia was above 100 µM each time. Further, the TGI with OVCAR-5 ovarian and in the test on HOP-92 NSCLC was above 100 µM in each case.
Take `C(=NCCN=Cc1cccc2ccccc12)c1cccc2ccccc12`: the TGI with SF-539 CNS, with HCC-2998 colon, with OVCAR-4 ovarian, in the test with SK-OV-3 ovarian, with SK-MEL-2 melanoma and in the test with K-562 leukemia was above 100 µM each time. Besides, the TGI in the test on OVCAR-5 ovarian is above 100 µM.
Turning to `C#Cc1ccccc1N1C(=O)C=CC1=O`, the TGI in the test on HL-60(TB) leukemia, with OVCAR-4 ovarian, in the test on SK-OV-3 ovarian, in the test with A498 renal, in the test on SK-MEL-2 melanoma and in the test on K-562 leukemia was above 100 µM in each case. Besides, the TGI in the test with OVCAR-5 ovarian was above 100 µM.
With `Nc1cc(N)c2nc(-c3ccccc3)c(Oc3ccc(Cl)c(Cl)c3)nc2c1`, the GI50 was 13.5 µM in the test with SF-539 CNS; 5.15 µM in the test with HL-60(TB) leukemia; 33 µM in the test with OVCAR-4 ovarian; 23.9 µM in the test on SK-OV-3 ovarian; 0.442 µM in the test on A498 renal; 5.63 µM with SK-MEL-2 melanoma. Moreover, the GI50 in the test on K-562 leukemia is 3.55 µM; in the test on OVCAR-5 ovarian it was 25.4 µM. For the same compound, the TGI in the test with SF-539 CNS is 29.5 µM; with HL-60(TB) leukemia, above 100 µM; in the test on OVCAR-4 ovarian, above 100 µM; in the test with SK-OV-3 ovarian, 65.9 µM; in the test on A498 renal, 12.3 µM; in the test with SK-MEL-2 melanoma it was 23.3 µM. In addition, the results for the TGI in the test on K-562 leukemia and in the test on OVCAR-5 ovarian were above 100 µM and 58.3 µM, respectively.
On to `NS(=O)(=O)c1ccc(N=Nc2c(=O)[nH]c3ccc4[nH]cccc4c23)cc1`, for which the GI50 was 0.295 µM in the test with SF-539 CNS; 0.557 µM with HL-60(TB) leukemia; 0.398 µM in the test with HCC-2998 colon; 0.409 µM with OVCAR-4 ovarian; 1.25 µM in the test with SK-OV-3 ovarian; 0.671 µM in the test on A498 renal. Further, the GI50 in the test on SK-MEL-2 melanoma was 0.182 µM; in the test on K-562 leukemia it was 0.721 µM; in the test on OVCAR-5 ovarian, 1.02 µM. Also, the TGI was 1.46 µM in the test on SF-539 CNS; 1.53 µM with HL-60(TB) leukemia; 2 µM in the test on HCC-2998 colon; above 6.68 µM in the test on OVCAR-4 ovarian; above 25 µM in the test on SK-OV-3 ovarian; 1.45 µM in the test with A498 renal. Moreover, the TGI is 0.696 µM in the test with SK-MEL-2 melanoma, above 25 µM in the test on K-562 leukemia and above 25 µM in the test with OVCAR-5 ovarian.
In the case of `COc1cc(OC)c2c(c1Cl)O[C@]1(C2=O)C(OCc2ccccc2)=CC(=O)C[C@H]1C`, the GI50 with SF-539 CNS is 0.884 µM; with HL-60(TB) leukemia, 0.531 µM; with HCC-2998 colon it was 1.49 µM; in the test on OVCAR-4 ovarian it was 7.16 µM; in the test with SK-OV-3 ovarian, 1.29 µM; in the test with A498 renal, 0.413 µM. Also, the GI50 in the test on K-562 leukemia was 0.538 µM; in the test with OVCAR-5 ovarian, 1.83 µM. Moreover, the TGI in the test with SF-539 CNS stood at 9.28 µM; in the test on HL-60(TB) leukemia, 3.52 µM; with HCC-2998 colon, 7.03 µM; in the test on OVCAR-4 ovarian, 73.3 µM; in the test on SK-OV-3 ovarian it was 7.75 µM; in the test with A498 renal it was 5.58 µM. Also, the TGI in the test with K-562 leukemia is 29.1 µM; in the test with OVCAR-5 ovarian it was above 100 µM.
Turning to `CC(=O)Nc1cc(CN2CCCCC2)c(O)c2ncccc12`, the TGI in the test on SF-539 CNS is above 100 µM; in the test with HL-60(TB) leukemia, 36.8 µM; with OVCAR-4 ovarian, above 100 µM; with SK-OV-3 ovarian, above 100 µM; in the test on A498 renal it was above 100 µM; with SK-MEL-2 melanoma, 23 µM. Besides, the TGI in the test with K-562 leukemia, with OVCAR-5 ovarian and with HOP-92 NSCLC was above 100 µM in each case.
Regarding `C[C@H](c1ccc(Cl)cc1[N+](=O)[O-])N1C(=O)c2cc(I)ccc2NC(=O)[C@H]1c1ccc(Cl)cc1`, the GI50 with SF-539 CNS was above 100 µM; in the test with HL-60(TB) leukemia, above 100 µM; in the test with OVCAR-4 ovarian, 7.08 µM; in the test with SK-OV-3 ovarian it was above 100 µM; in the test with A498 renal it was above 100 µM; with SK-MEL-2 melanoma, above 100 µM. The GI50 in the test with K-562 leukemia is 77 µM; with OVCAR-5 ovarian, above 100 µM; with HOP-92 NSCLC it was 2.79 µM. Also, the TGI with SF-539 CNS, in the test on HL-60(TB) leukemia, with OVCAR-4 ovarian, in the test with SK-OV-3 ovarian, in the test with A498 renal and with SK-MEL-2 melanoma was above 100 µM in each case. The TGI in the test on K-562 leukemia, in the test on OVCAR-5 ovarian and in the test with HOP-92 NSCLC was above 100 µM throughout.
For `COc1ccc(-c2cc(=O)c3cccnc3[nH]2)cc1`, the TGI is above 100 µM with SF-539 CNS; 57.1 µM with HL-60(TB) leukemia; above 100 µM in the test on HCC-2998 colon; above 100 µM in the test with OVCAR-4 ovarian; above 100 µM in the test on SK-OV-3 ovarian; above 100 µM with A498 renal. The TGI with SK-MEL-2 melanoma is above 100 µM; with K-562 leukemia, 88.6 µM; in the test on OVCAR-5 ovarian, above 100 µM. For the same compound, in the test on HL-60(TB) leukemia, the GI50 was 13 µM.
For the compound `Nc1nc(N)c(-c2ccc(Cl)cc2)c(/C=C/c2ccc([N+](=O)[O-])cc2)n1`, the GI50 in the test on SF-539 CNS was 7.15 µM; in the test with HL-60(TB) leukemia it was 5.64 µM; with OVCAR-4 ovarian it was 4.54 µM; in the test with SK-OV-3 ovarian, 19.2 µM; with A498 renal it was 1.97 µM; in the test with SK-MEL-2 melanoma, 18.6 µM. Further, the GI50 was 3.16 µM in the test with K-562 leukemia and 38.2 µM in the test with OVCAR-5 ovarian. The TGI was 30 µM in the test on SF-539 CNS; above 100 µM with HL-60(TB) leukemia; above 100 µM with OVCAR-4 ovarian; 56.4 µM in the test on SK-OV-3 ovarian; 16.5 µM with A498 renal; 67.2 µM in the test on SK-MEL-2 melanoma. The TGI in the test with K-562 leukemia and in the test with OVCAR-5 ovarian was above 100 µM in each case.
